Measured values from patent US11207320B2, “Compositions and methods for cancer expressing PDE3A or SLFN12” (The Broad Institute, Inc., priority 2015, dated 2021).

Legend:
HeLa cells = experiment: Compound sensitivity testing in cell lines (48 h viability); assay type: cell-based
Method: 1500 NCI-H1734 or 1000 A549 cells were plated in a 384-well plate in 40 μl of RPMI supplemented with 10% Fetal Bovine Serum and 1% Pen/Strep. 24 hours after plating, a compound-library of 1924 small molecules was added at a concentration of 10 μM. Staurosporine was used a positive control for cytotoxicity at a concentration of 10 μM, and DMSO was used a negative control at a concentration of 1%. All compounds were incubated for 48 hours with indicated small molecules. After 48 hours, 384-well plates were removed from the incubator and allowed to cool to room temperature for 20 minutes. Cell viability was assessed by adding 40 μl of a 25% CELLTITERGLO® (Promega) in PBS with a THERMO COMBI™ or multichannel-pipette and incubated for 10 minutes. The luminescence signal was read using a Perkin-Elmer EnVision. Viability percentage was calculated by normalizing to DMSO controls.
1000 HeLa (DMEM), 1000 A549 (RPMI), 500 MCF-7 (DMEM), 4000 PC3 (F12-K), 1000 NCI-H2122 (RPMI) or 1500 NCI-H1563 (RPMI) cells were plated in a 384-well plate in 40 μl of corresponding growth media supplemented with 10% Fetal Bovine Serum. 24 hours after plating, indicated compounds were added at indicated concentrations and incubated for 48 hours. Cell viability was assessed as described in Compound library screening in NCI-H1734 and A549 cell lines.

PDE3A and SLFN12 = molecular target: T1, PDE3A and SLFN12 (Homo sapiens, UniProt Q14432); experiment: Validation of DNMDP-induced PDE3A protein interactions using immunoprecipitation and immunoblotting; assay type: cell-based; details: for PDE3A and SLFN12 complex formation: FIG. 20, affinity reagents, immunoblot; for complex formation of V5-tagged SIRT7 and SLFN12 with PDE3A: HeLa, 10 μM, 4 hours, coimmunoprecipitation (FIG. 19)
T1 construct: Endogenous PDE3A was immunoprecipitated; host or cells: HeLa
Method: FIG. 19 is an immunoblot showing that DNMDP induces interaction between PDE3A and SIRT7 and SLFN12 in HeLa cells. HeLa cells were transfected with indicated plasmids and treated with indicated compounds with a final concentration of 10 μM for four hours. Endogenous PDE3A was immunoprecipitated and immunoblotted for V5 to identify novel interaction with SIRT7 and SLFN12 (upper two panels). Immunoprecipitate input was immunoblotted for PDE3A and V5 (lower two panels). V5-SLFN12 was undetectable in whole cell lysate.
FIG. 20 is an immunoblot showing confirmation of mass spectrometric results herein using affinity reagents.
HeLa cells were transfected with ORF overexpression constructs expressing V5-tagged SIRT7, V5-tagged SLFN12, or V5-tagged GFP. ORF expression constructs were obtained from the TRC (clone IDs: TRCN0000468231, TRCN0000476272, ccsbBroad304_99997). At 72 hours post transfection, cells were treated with 10 μM DNMDP or trequinsin for 4 hours followed by lysis using the ModRipa lysis buffer and immunoprecipitation of PDE3A. For each condition, 2 mg total protein lysate was incubated with 1 μg of anti-PDE3A antibody at 4° C. overnight, after which 7.5 μl each of Protein A- and Protein G-Dynabeads (Life Technologies 10001D and 10003D) were added and incubated for another 1 hour. Beads were washed and bound proteins were eluted with 30 μl of LDS PAGE gel loading buffer. Input (˜60 μg total protein lysate) and IP products were resolved on 4-12% Tris-Glycine PAGE gels and immunoblotted with an anti-V5 antibody (Life Technologies R96205, 1:5000), the Bethyl anti-PDE3A antibody (1:1000), and secondary antibodies from LiCOR Biosciences (Cat.#926-32210 and 926068021, each at 1:10,000). Blots were washed and imaged using a LiCOR Odyssey infrared imager.

PDE3A(677-1141) = molecular target: T2, PDE3A(677-1141) (Homo sapiens, UniProt Q14432); experiment: Differential scanning fluorimetry (DSF) binding; details: 5 μM protein, 100 μM compound
T2 construct: purified PDE3A catalytic domain, PDE3A(677-1141)
Method: Binding buffer: 20 mM Hepes pH 7.4, 100 μM TCEP, 1 mM MgCl2, 150 mM NaCl.

T2 sequence (Q14432 677-1141): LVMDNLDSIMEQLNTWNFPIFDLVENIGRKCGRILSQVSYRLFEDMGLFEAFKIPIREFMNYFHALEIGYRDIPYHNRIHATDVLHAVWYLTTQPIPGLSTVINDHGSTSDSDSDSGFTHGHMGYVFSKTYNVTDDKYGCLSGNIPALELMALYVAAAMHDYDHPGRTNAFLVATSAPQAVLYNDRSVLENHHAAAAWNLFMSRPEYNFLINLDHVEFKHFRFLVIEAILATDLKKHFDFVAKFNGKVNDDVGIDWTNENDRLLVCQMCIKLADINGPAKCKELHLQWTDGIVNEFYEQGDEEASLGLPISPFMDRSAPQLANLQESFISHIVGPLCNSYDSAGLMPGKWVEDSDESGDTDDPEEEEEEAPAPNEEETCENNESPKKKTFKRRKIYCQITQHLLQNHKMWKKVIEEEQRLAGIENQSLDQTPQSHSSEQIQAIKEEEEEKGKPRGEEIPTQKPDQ
T1 sequence (Q14432 whole entry): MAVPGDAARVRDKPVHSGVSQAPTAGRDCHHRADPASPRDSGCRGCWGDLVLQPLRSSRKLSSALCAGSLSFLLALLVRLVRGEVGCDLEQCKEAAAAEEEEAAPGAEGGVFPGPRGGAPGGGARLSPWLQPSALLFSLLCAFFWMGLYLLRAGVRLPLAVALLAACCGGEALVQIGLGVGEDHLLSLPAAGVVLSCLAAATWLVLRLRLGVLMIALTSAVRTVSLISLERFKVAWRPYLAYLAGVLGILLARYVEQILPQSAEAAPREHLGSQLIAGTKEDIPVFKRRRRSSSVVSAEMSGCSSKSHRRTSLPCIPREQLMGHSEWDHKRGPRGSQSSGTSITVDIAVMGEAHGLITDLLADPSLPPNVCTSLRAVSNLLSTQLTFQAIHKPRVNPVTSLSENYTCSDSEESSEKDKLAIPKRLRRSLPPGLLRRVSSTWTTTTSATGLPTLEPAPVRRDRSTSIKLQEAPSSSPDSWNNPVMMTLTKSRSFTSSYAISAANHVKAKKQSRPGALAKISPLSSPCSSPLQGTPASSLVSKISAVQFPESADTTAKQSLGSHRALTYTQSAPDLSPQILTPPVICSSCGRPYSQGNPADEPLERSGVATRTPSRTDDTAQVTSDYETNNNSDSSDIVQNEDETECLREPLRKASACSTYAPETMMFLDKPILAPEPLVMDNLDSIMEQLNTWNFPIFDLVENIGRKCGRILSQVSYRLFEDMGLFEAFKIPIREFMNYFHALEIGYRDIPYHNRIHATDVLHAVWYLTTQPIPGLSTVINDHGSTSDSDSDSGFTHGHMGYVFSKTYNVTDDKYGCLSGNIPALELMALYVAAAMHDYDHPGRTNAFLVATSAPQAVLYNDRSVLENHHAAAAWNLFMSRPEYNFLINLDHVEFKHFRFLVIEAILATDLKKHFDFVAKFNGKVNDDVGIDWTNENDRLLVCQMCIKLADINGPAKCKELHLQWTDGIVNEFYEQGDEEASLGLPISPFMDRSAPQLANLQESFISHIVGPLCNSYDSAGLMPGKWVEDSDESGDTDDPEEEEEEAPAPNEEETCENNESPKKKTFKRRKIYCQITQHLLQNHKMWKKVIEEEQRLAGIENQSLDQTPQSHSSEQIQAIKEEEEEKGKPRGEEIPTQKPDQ
T1 sequence (Q8IYM2 whole entry partner): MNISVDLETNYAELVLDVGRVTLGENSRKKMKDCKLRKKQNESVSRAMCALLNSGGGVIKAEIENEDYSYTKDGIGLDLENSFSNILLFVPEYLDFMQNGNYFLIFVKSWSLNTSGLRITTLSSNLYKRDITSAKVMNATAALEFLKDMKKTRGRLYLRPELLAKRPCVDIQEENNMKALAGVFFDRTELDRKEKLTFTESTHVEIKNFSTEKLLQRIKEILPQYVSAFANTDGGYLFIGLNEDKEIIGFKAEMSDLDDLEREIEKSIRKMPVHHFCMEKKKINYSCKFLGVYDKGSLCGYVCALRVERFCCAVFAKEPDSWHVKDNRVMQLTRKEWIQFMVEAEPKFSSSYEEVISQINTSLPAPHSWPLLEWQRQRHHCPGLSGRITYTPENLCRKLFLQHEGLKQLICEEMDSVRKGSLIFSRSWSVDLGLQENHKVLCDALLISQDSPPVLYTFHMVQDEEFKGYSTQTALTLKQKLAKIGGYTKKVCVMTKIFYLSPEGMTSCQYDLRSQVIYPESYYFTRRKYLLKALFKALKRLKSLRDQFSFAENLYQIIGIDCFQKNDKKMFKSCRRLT

| Structure (SMILES) | EC70 (HeLa cells; HeLa) | EC50 (HeLa cells; Homo sapiens, HeLa cervical carcinoma cells) | PDE3A and SLFN12 complex formation (PDE3A and SLFN12) | complex formation of V5-tagged SIRT7 and SLFN12 with PDE3A (PDE3A and SLFN12) | Tm (° C.) (PDE3A(677-1141)) | ΔTm at 100 µM (PDE3A(677-1141)) | effect on HeLa cell viability / cytotoxicity (HeLa cells; HeLa) |
| --- | --- | --- | --- | --- | --- | --- | --- |
| CCN(CC)c1ccc(C2=NNC(=O)CC2C)cc1[N+](=O)[O-] (centres unmarked) [DNMDP, 6-(4-(diethylamino)-3-nitrophenyl)-5-methyl-4,5-dihydropyridazin-3(2H)-one] | 30 nM | 10 to 100 nM | induced | enhanced | 58.4 ± 0.0 °C | 6 °C |  |
| COc1cc2c(cc1OC)-c1c/c(=N\c3c(C)cc(C)cc3C)n(C)c(=O)n1CC2 [trequinsin, 9,10-dimethoxy-3-methyl-2-(2,4,6-trimethylphenyl)imino-6,7-dihydropyrimido[6,1-a]isoquinolin-4-one] |  |  | not | not | 66.2 ± 0.0 °C | 14.2 °C | did not affect HeLa cell viability in any detectable way |
